In the supplement of paper PMC10307832:

Tests used:
Test in all cases: relative viability (nuclei count vs DMSO), 5 days (fraction); higher = more cells survive
Quizartinib + Lapatinib = compound: CC(C)(C)c1cc(NC(=O)Nc2ccc(-c3cn4c(n3)sc3cc(OCCN5CCOCC5)ccc34)cc2)no1 [Quizartinib] + CS(=O)(=O)CCNCc1ccc(-c2ccc3ncnc(Nc4ccc(OCc5cccc(F)c5)c(Cl)c4)c3c2)o1 [Lapatinib] (partner 2 µM)
Outline: (§1)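 One day after seeding in 1536-well plates, lung cancer cell lines were dosed by pin tool. Dosing was either single-drug or a fixed anchor-drug dose plus five library-drug doses (not always all listed) in √10 steps. After 5 days, nuclei were stained in one fix-and-stain step and counted on 4× images, and relative viability is the nuclei count of treated wells over that of vehicle wells, given as the median of duplicate plates.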

Quizartinib + Dasatinib = compound: CC(C)(C)c1cc(NC(=O)Nc2ccc(-c3cn4c(n3)sc3cc(OCCN5CCOCC5)ccc34)cc2)no1 [Quizartinib] + Cc1nc(Nc2ncc(C(=O)Nc3c(C)cccc3Cl)s2)cc(N2CCN(CCO)CC2)n1 [Dasatinib] (partner 0.075 µM)
Outline: as §1

YM155 + Olaparib = compound: COCC[n+]1c2c(n(Cc3cnccn3)c1C)C(=O)c1ccccc1C2=O [YM155] + O=C(c1cc(Cc2n[nH]c(=O)c3ccccc23)ccc1F)N1CCN(C(=O)C2CC2)CC1 [Olaparib] (partner 8 µM)
Outline: as §1

YM155 + Crizotinib = compound: COCC[n+]1c2c(n(Cc3cnccn3)c1C)C(=O)c1ccccc1C2=O [YM155] + C[C@@H](Oc1cc(-c2cnn(C3CCNCC3)c2)cnc1N)c1c(Cl)ccc(F)c1Cl [Crizotinib] (partner 1 µM)
Outline: as §1

Row | Cell Line | relative viability (Quizartinib + Lapatinib; first compound 0.003162 µM) | relative viability (Quizartinib + Lapatinib; first compound 0.01 µM) | relative viability (Quizartinib + Lapatinib; first compound 0.03162 µM) | relative viability (Quizartinib + Lapatinib; first compound 0.1 µM) | relative viability (Quizartinib + Dasatinib; first compound 0.003162 µM) | relative viability (Quizartinib + Dasatinib; first compound 0.01 µM) | relative viability (Quizartinib + Dasatinib; first compound 0.03162 µM) | relative viability (Quizartinib + Dasatinib; first compound 0.1 µM) | relative viability (YM155 + Olaparib; first compound 0.006325 µM) | relative viability (YM155 + Olaparib; first compound 0.02 µM) | relative viability (YM155 + Olaparib; first compound 0.06325 µM) | relative viability (YM155 + Crizotinib; first compound 0.002 µM) | relative viability (YM155 + Crizotinib; first compound 0.006325 µM) | relative viability (YM155 + Crizotinib; first compound 0.02 µM) | relative viability (YM155 + Crizotinib; first compound 0.06325 µM) | relative viability (Quizartinib + Lapatinib; first compound 0.001 µM) | relative viability (Quizartinib + Dasatinib; first compound 0.001 µM) | relative viability (YM155 + Olaparib; first compound 0.002 µM)
1 | NCI-H23 | 0.959 | 1.28 | 0.861 | 1.01 | 0.733 | 0.696 | 0.712 | 0.853 | 0.323 | 0.294 | 0.235 | 0.527 | 0.607 | 0.47 | 0.234 | – | – | –
2 | NCI-H322M | 0.502 | 0.605 | 0.628 | 0.673 | 0.255 | 0.27 | 0.265 | 0.266 | 0.815 | 0.706 | 0.734 | 0.822 | 0.906 | 0.949 | 0.578 | 0.565 | 0.208 | 0.719
3 | NCI-H358 | 0.516 | 0.412 | – | 0.39 | 0.188 | 0.164 | 0.167 | 0.144 | 0.625 | 0.529 | 0.156 | 0.538 | 0.594 | 0.592 | 0.214 | 0.349 | 0.136 | 0.574
4 | NCI-H460 | 1.03 | 1.26 | – | 0.205 | 0.551 | 0.413 | 0.307 | 0.422 | 0.444 | 0.417 | 0.384 | 1.01 | 0.803 | 0.936 | 0.84 | 0.924 | 0.481 | 0.411
5 | NCI-H520 | 0.766 | 0.828 | 0.85 | 0.591 | 0.192 | 0.244 | 0.198 | 0.171 | 0.441 | 0.379 | 0.294 | 0.755 | 0.725 | 0.835 | 0.66 | 0.649 | 0.169 | 0.362
6 | NCI-H596 | 0.985 | 1.08 | 1.08 | 1.17 | 0.546 | 0.578 | 0.592 | 0.495 | 0.669 | 0.697 | 0.622 | – | 0.965 | 0.997 | 0.974 | 1.06 | 0.658 | 0.719
7 | NCI-H647 | 1.1 | 1.12 | 0.97 | 0.985 | 0.181 | 0.178 | 0.199 | 0.185 | 0.64 | 0.516 | 0.295 | 1.08 | 1.31 | 1.12 | 0.755 | 0.966 | 0.173 | 0.506
8 | NCI-H650 | 0.754 | 0.726 | 0.688 | 1.1 | 0.524 | 0.391 | 0.415 | 0.506 | 0.345 | 0.409 | 0.377 | 0.835 | 0.655 | 0.747 | 0.52 | 0.888 | 0.484 | 0.429
9 | NCI-H661 | 0.457 | 0.436 | 0.468 | 0.691 | 0.896 | 1.09 | 0.837 | 0.887 | 0.686 | 0.739 | 0.41 | 1.01 | 0.942 | 1.05 | 0.798 | 0.493 | 0.756 | 0.727
10 | NCI-H727 | – | 0.929 | 0.875 | 0.725 | 0.377 | 0.411 | 0.322 | 0.318 | 0.722 | 0.66 | 0.729 | 0.828 | 0.821 | 0.868 | 0.738 | 0.876 | – | 0.775
11 | NCI-H838 | 1.11 | 0.784 | 0.675 | 0.605 | 0.329 | 0.276 | 0.296 | 0.257 | 0.787 | 0.761 | 0.416 | 0.825 | 0.909 | 0.911 | 0.297 | 0.816 | 0.272 | 0.711
12 | NCI-H1355 | 0.992 | 1 | 0.914 | 1.06 | 0.762 | 0.684 | 0.747 | 0.66 | 0.731 | 0.8 | 0.725 | 0.988 | 1.11 | 1.03 | 1.01 | 0.979 | 0.719 | 0.751
13 | NCI-H1437 | 0.827 | 0.764 | 0.45 | 0.543 | 0.467 | 0.384 | 0.27 | 0.363 | 0.596 | 0.599 | 0.387 | 0.878 | 0.9 | 0.902 | 0.681 | 0.738 | 0.375 | 0.618
14 | NCI-H1650 | 0.782 | 0.579 | – | 0.686 | 0.328 | 0.298 | – | 0.245 | 0.699 | 0.491 | 0.194 | 0.924 | 0.974 | 0.717 | 0.286 | 0.189 | 0.283 | 0.781
15 | NCI-H1651 | 0.831 | 0.781 | 0.274 | 0.821 | 0.429 | 0.392 | 0.296 | 0.441 | 0.19 | 0.206 | 0.173 | 0.956 | 0.806 | 0.876 | 0.894 | 0.718 | 0.306 | 0.189
16 | NCI-H1666 | 0.634 | 0.727 | 0.38 | 0.639 | 0.782 | 0.737 | 0.582 | 0.757 | 0.741 | 0.769 | 0.679 | 1.05 | – | 1.01 | 0.879 | 0.691 | 0.836 | 0.754
17 | NCI-H1734 | 1.1 | 1.08 | 0.873 | 0.998 | 0.421 | 0.431 | 0.481 | 0.453 | 0.607 | 0.656 | 0.63 | 0.646 | 0.662 | 0.766 | 0.675 | 0.869 | 0.408 | 0.53
18 | NCI-H1755 | 0.98 | 1.1 | 1.07 | 1.04 | 0.367 | 0.409 | 0.429 | 0.404 | 0.853 | 0.855 | 0.913 | 0.882 | 0.833 | 0.973 | 0.859 | 0.909 | 0.389 | 0.848
